Test results from patent US20220274947A1, “NOVEL HETEROARYL-TRIAZOLE COMPOUNDS AS PESTICIDES” (Bayer Aktiengesellschaft, priority 2019, published 2022).

Tests used:
Format in all cases: in vivo
Diabrotica balteata = Diabrotica balteata spray test; settings: 168 h, wheat seeds, larvae, after 7 days, read-out: activity (efficacy: 100% means all seedlings have grown up like in the untreated, uninfected control); for pest or weed control at 32 µg/disc, 100 g/ha: application rate 100 g/ha (=32 μg/well); for pest or weed control at 160 µg/disc, 500 g/ha: application rate 500 g/ha (=160 μg/well)
How it was run: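 Wheat seedlings, germinated 1 day on agar, were sprayed with compound in acetone/DMF diluted in water containing emulsifier, then infested with 10-20 Diabrotica balteata larvae. After 7 days efficacy in % was scored: 100% means seedlings grew like the untreated, uninfected control; 0% means none grew.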

Meloidogyne incognita = Meloidogyne incognita test; settings: application rate 20 ppm, salad seedlings, after 14 days
Experimental: Meloidogyne incognita—Test Solvent: 125.0 parts by weight of acetone
To produce a suitable preparation of active compound, 1 part by weight of active compound is mixed with the stated amount of solvent, and the concentrate is diluted with water to the desired concentration.
Vessels are filled with sand, a solution of the active ingredient, a suspension containing eggs and larvae of the southern root-knot nematode (Meloidogyne incognita) and salad seeds. The salad seeds germinate and the seedlings grow. Galls develop in the roots.
After 14 days the nematicidal activity is determined based on the percentage of gall formation. 100% means no galls were found and 0% means the number of galls found on the roots of the treated plants was equal to that in untreated control plants.

Spodoptera frugiperda = Spodoptera frugiperda spray test; settings: in Zea mays, 168 h, read-out: activity (mortality)
How it was run: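 Maize leaf sections were sprayed with compound formulated in acetone/DMF and diluted in water containing 1000 ppm emulsifier. Dried leaves were infested with fall armyworm larvae, and percent mortality was scored after 7 days.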

Rhipicephalus microplus [1] = experiment: Rhipicephalus (Boophilus) microplus injection test (BOOPMI Inj); settings: 168 h, injection into adult engorged female ticks, egg deposition after 7 days, read-out: activity (efficacy: 100% means all eggs are infertile); for pest or weed control at 0.02 mg: application rate 20 μg/tick; for pest or weed control at 0.004 mg: application rate 4 μg/tick
How it was run: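 Five engorged adult female R. microplus ticks injected into the abdomen with 1 μL of compound diluted in DMSO, then kept in a climate chamber. Fertile egg deposition checked after 7 days; eggs without visible fertility held until hatching at about 42 days. Efficacy: 100% = all eggs infertile, 0% = all fertile.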

Ctenocephalides felis [2] = experiment: Ctenocephalides felis oral test (CTECFE Oral); settings: 48 h, read-out: activity (mortality)
How it was run: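 About 20 unfed adult cat fleas fed through parafilm on cattle blood containing compound (DMSO concentrate diluted in blood to the desired concentration). Blood held at 37 °C, fleas at room temperature. Mortality (%) scored after 2 days.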

Rhipicephalus microplus [3] = experiment: Rhipicephalus (Boophilus) microplus in-vitro contact test, larval cattle tick, strain Parkhurst (BOOPMI Cont); settings: application rate 5 μg/cm^2 (=500 g/ha), tick larvae, after 48 hours, read-out: activity (efficacy: 100% means all larvae are dead or moribund)
How it was run: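 Acetone solutions dried onto glass tube walls (900 ppm giving 5 μg/cm^2); 20-50 pyrethroid-resistant Parkhurst larvae added per tube and held 48 h at 27° C., 85% relative humidity. Efficacy scored by negative geotaxis as % dead or moribund larvae.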

[4] = system: Aedes aegypti strain MONHEIM; experiment: Aedes aegypti test (AEDSAE surface treatment & contact assay); settings: exposure 30 minutes, 24 hours after contact, read-out: efficacy (mortality); for mortality at 20 mg/m2: surface concentration 20 mg/m^2, glazed tile; for mortality at 4 mg/m2: surface concentration 4 mg/m^2, glazed tile
How it was run: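 Compound dissolved in acetone (2 mg/ml) with 2000 ppm rapeseed oil methyl ester, pipetted onto glazed tile and dried. Adult mosquitoes exposed on the surface for 30 min; percent mortality scored 24 h after contact.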

Rhipicephalus sanguineus = Rhipicephalus sanguineus in-vitro contact test, adult brown dog ticks (RHIPSA Cont); settings: 48 h, after 48 hours, read-out: activity (efficacy: 100% means all ticks are dead or moribund); for pest or weed control at 1 µg/cm2, 100 g/ha: application rate 1 μg/cm^2 (=100 g/ha); for pest or weed control at 5 µg/cm2, 500 g/ha: application rate 5 μg/cm^2 (=500 g/ha)
How it was run: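 Compound in acetone was coated onto the inner walls of glass tubes and dried by rotation before adult brown dog ticks were exposed. Efficacy was scored at 48 h. Ticks unable to climb away from a 45–50 °C heating plate within 5 min counted as dead or moribund.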

Myzus persicae [5] = experiment: Myzus persicae oral test; settings: 120 h, read-out: activity (mortality)
How it was run: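 Percent mortality was recorded at day 5, where 0% means no aphids killed. Compound prepared from an acetone concentrate diluted in water and combined with IPL41 medium containing sugar was offered to mixed-stage green peach aphids, which sucked it through a parafilm seal.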

[6] = system: Musca domestica strain WHO—N; experiment: Musca domestica test (MUSCDO surface treatment & contact assay); settings: surface concentration 20 mg/m^2, glazed tile, exposure 30 minutes, 24 hours after contact, read-out: efficacy (mortality)
How it was run: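 Compound dissolved in acetone (2 mg/ml) with 2000 ppm rapeseed oil methyl ester and pipetted onto glazed tile; after acetone evaporation, adult flies exposed to dried surface for 30 minutes. Mortality (%) scored 24 hours after contact.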

[7] = system: Blattella germanica strain PAULINIA; experiment: Blattella germanica test (BLTTGE surface treatment & contact assay); settings: surface concentration 20 mg/m^2, glazed tile, exposure 30 minutes, 24 hours after contact, read-out: efficacy (mortality)
Experimental: Blattella germanica Test (BLTTGE Surface Treatment & Contact Assay) Solvent: Aceton+2000 ppm rapeseed oil methyl ester (RME)
In order to produce a sufficient, active ingredient containing solution it is necessary to solve the test compound in the solvent-mix (acetone at 2 mg/ml/RME 2000 ppm). This solution is pipetted onto a glazed tile and after evaporation of the acetone, adult animals of the species Blattella germanica strain […] are placed onto the dried surface. The exposure time is 30 minutes. Mortality in percent (%) is determined 24 hours after contact of the insects to the treated surface. 100% mortality means that all tested insects are dead, whereas 0% means that no insect died.

[8] = system: Anopheles funestus strain FUMOZ-R; experiment: Anopheles funestus test (ANPHFU surface treatment & contact assay); settings: surface concentration 20 mg/m^2, glazed tile, exposure 30 minutes, 24 hours after contact, read-out: efficacy (mortality)
Experimental: Anopheles funestus Test (ANPHFU Surface Treatment & Contact Assay) Solvent: Aceton+2000 ppm rapeseed oil methyl ester (RME)
In order to produce a sufficient, active ingredient containing solution it is necessary to solve the test compound in the solvent-mix (acetone at 2 mg/ml/RME 2000 ppm). This solution is pipetted onto a glazed tile and after evaporation of the acetone, adult mosquitoes of the species Anopheles funestus strain FUMOZ-R (Hunt et al., Med. Vet. Entomol. 2005 September; 19(3): 271-275) are placed onto the dried surface. The exposure time is 30 minutes. Mortality in percent (%) is determined 24 hours after contact of the insects to the treated surface. 100% mortality means that all tested insects are dead, whereas 0% means that no insect died.

Ctenocephalides felis [9] = experiment: Ctenocephalides felis in-vitro contact test, adult cat flea (CTECFE Cont); settings: application rate 5 μg/cm^2 (=500 g/ha), adult cat fleas, after 48 hours, read-out: activity (efficacy: 100% means all fleas are dead or moribund)
How it was run: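 Acetone solutions coated on glass tube inner walls (900 ppm giving 5 μg/cm^2), then 5-10 adult fleas added and held 48 h at room temperature. Fleas unable to escape a 45-50° C. heating plate within 5 min scored dead or moribund; efficacy = % dead/moribund.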

Tetranychus urticae = Tetranychus urticae spray test, OP-resistant; settings: foliar, 144 h, application rate 500 g/ha, French bean leaf disks, after 6 days
Experimental: Tetranychus urticae—Spray Test OP-Resistant Solvent: 78.0 parts by weight acetone • 1.5 parts by weight dimethylformamide Emulsifier: alkylarylpolyglycol ether
(§1) To produce a suitable preparation of active compound, 1 part by weight of active compound is mixed with the stated amount of solvents and is diluted with water, containing an emulsifier concentration of 1000 ppm, to the desired concentration. Further test concentrations are prepared by dilution with emulsifier containing water.
French bean (Phaseolus vulgaris) leaf disks infected with all instars of the two spotted spidermite (Tetranychus urticae), are sprayed with a preparation of the active ingredient of the desired concentration.
After 6 days mortality in % is determined. 100% means all spider mites have been killed and 0% means none of the spider mites have been killed.

Myzus persicae [10] = experiment: Myzus persicae spray test; settings: in Brassica rapa, foliar, 120 h, read-out: activity (mortality), application rate 100 g/ha, spray, Chinese cabbage leaf disks, after 5 days
How it was run: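 Compound in acetone/DMF solvent diluted in water with 1000 ppm alkylarylpolyglycol ether emulsifier, sprayed onto Chinese cabbage leaf disks infested with all instars of Myzus persicae. Mortality (%) scored after 5 days.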

Nilaparvata lugens = Nilaparvata lugens spray test; settings: 96 h, application rate 100 g/ha, rice plants, after 4 days
Experimental: Nilaparvata lugens—Spray Test Solvent: 78.0 parts by weight of acetone • • 1.5 parts by weight of dimethylformamide Emulsifier: alkylarylpolyglycol ether
as §1
Rice plants (Oryza sativa) are sprayed with a preparation of the active ingredient of the desired concentration and the plants are infested with the brown planthopper (Nilaparvata lugens).
After 4 days mortality in % is determined. 100% means all planthoppers have been killed and 0% means none of the planthoppers have been killed.

| Compound | pest or weed control at 32 µg/disc, 100 g/ha (Diabrotica balteata) [%] | pest or weed control at 160 µg/disc, 500 g/ha (Diabrotica balteata) [%] | nematicidal activity (100% means no galls were found) (Meloidogyne incognita) [%] | mortality at 100 g/ha (Spodoptera frugiperda) [%] | mortality at 500 g/ha (Spodoptera frugiperda) [%] | pest or weed control at 0.02 mg (Rhipicephalus microplus [1]) [%] | mortality at 100 ppm (Ctenocephalides felis [2]) [%] | pest or weed control at 5 µg/cm2 (Rhipicephalus microplus [3]) [%] | pest or weed control at 0.004 mg (Rhipicephalus microplus [1]) [%] | mortality at 20 mg/m2 [4] [%] | pest or weed control at 1 µg/cm2, 100 g/ha (Rhipicephalus sanguineus) [%] | pest or weed control at 5 µg/cm2, 500 g/ha (Rhipicephalus sanguineus) [%] | further results |
| --- | --- | --- | --- | --- | --- | --- | --- | --- | --- | --- | --- | --- | --- |
| CCOc1nc([C@H](C)NC(=O)c2cc(Cl)cc(C(F)(F)F)c2)n(-c2ccc(C#N)cn2)n1 [I-12] | 100 | 100 | 90 | 100 | 100 | 100 | 90 | 100 | – | – | – | – | – |
| CCOc1nc([C@H](C)NC(=O)c2cc(C(F)(F)F)cc(C(F)(F)F)c2)n(-c2ccc(C#N)cn2)n1 [I-13] | 100 | 100 | 90 | 100 | 100 | 100 | 100 | 100 | 100 | – | – | – | – |
| CCOc1nc([C@H](C)NC(=O)c2cc(Cl)cc(Cl)c2)n(-c2ccc(C#N)cn2)n1 [I-14] | 100 | 100 | 100 | 83 | 100 | 100 | – | 100 | 100 | – | – | – | – |
| CC(C)c1nc([C@H](C)NC(=O)c2cc(Cl)cc(Br)c2)n(-c2ccc(C#N)cn2)n1 [I-19] | 100 | – | 90 | 100 | – | 100 | 100 | 100 | 100 | 80 to 100 | 100 | 100 | – |
| CC(C)c1nc([C@H](C)NC(=O)c2cccc(Br)n2)n(-c2ccc(C#N)cn2)n1 [I-23] | – | – | 90 | – | – | 100 | – | – | 80 | – | – | 80 | – |
| C[C@H](NC(=O)c1cc(Cl)cc(C(F)(F)F)c1)c1ncnn1-c1cc([N+](=O)[O-])ccn1 [II-24] | – | 80 | 100 | – | 100 | 100 | – | 100 | 80 | – | 80 | – | – |
| C[C@H](NC(=O)c1cc(Cl)cc(OC(F)(F)F)c1)c1ncnn1-c1cc(NC(=O)C2CC2)ccn1 [II-25] | – | 80 | 90 | 100 | 100 | 100 | – | 100 | 100 | 80 to 100 | – | 80 | mortality at 4 ppm (Myzus persicae [5]): 100%; mortality at 20 mg/m2 [6]: 80 to 100%; mortality at 4 mg/m2 [4]: 80 to 100% |
| CC(=O)N(C)c1ccc(-n2ncnc2[C@H](C)NC(=O)c2cc(Cl)cc(C(F)(F)F)c2)nc1 [II-80] | – | – | – | – | – | – | 100 | 100 | 80 | 80 to 100 | – | – | mortality at 0.8 ppm (Myzus persicae [5]): 100%; mortality at 20 mg/m2 [7]: 80 to 100%; mortality at 20 mg/m2 [8]: 80 to 100%; pest or weed control at 5 µg/cm2 (Ctenocephalides felis [9]): 100%; mortality at 500 g/ha (Tetranychus urticae): 90%; mortality at 100 g/ha (Myzus persicae [10]): 90%; mortality at 4 mg/m2 [4]: 80 to 100% |
| Cc1nc([C@H](C)NC(=O)c2cc(Cl)cc(C(F)(F)F)c2)n(-c2cnc(C#N)cn2)n1 [II-104] | – | – | – | 100 | – | – | 100 | 100 | 100 | – | 100 | 100 | pest or weed control at 5 µg/cm2 (Ctenocephalides felis [9]): 100%; mortality at 100 g/ha (Myzus persicae [10]): 100%; mortality at 100 g/ha (Nilaparvata lugens): 90% |
